In brackets after ≈: the same amount, converted by molar mass.
What was measured:
[1] = Cytotoxicity against mouse leukemia cells; type: functional, cell-based; settings: Leukemia cell
Human respirovirus 3 = test: Antiviral activity against Parainfluenza type 3 assessed as protection against virus-induced cytopathogenic effect by cell based assay; type: functional; settings: read-out: ID50 (the source's name)
Yellow fever virus = test: Antiviral activity against Yellow fever virus assessed as protection against virus-induced cytopathogenic effect by cell based assay; type: functional; settings: read-out: ID50 (the source's name)
[2] = Cytotoxicity against human SKBR3 cells; type: functional, cell-based; settings: SK-BR-3
MCF7 = test: Cytotoxicity against human MCF7 cells; type: functional, cell-based
MDA-MB-231 = test: Cytotoxicity against human MDA-MB-231 cells; type: functional, cell-based
[3] = test system: Vesicular stomatitis virus; test: Antiviral activity against Vesicular stomatitis virus assessed as protection against virus-induced cytopathogenic effect by cell based assay; type: functional; settings: read-out: ID50 (the source's name)
[4] = target: T1, Type-2 angiotensin II receptor (Rattus norvegicus, UniProt P35351); test: Inhibition of rat AT2 receptor
T1 sequence (P35351 whole entry): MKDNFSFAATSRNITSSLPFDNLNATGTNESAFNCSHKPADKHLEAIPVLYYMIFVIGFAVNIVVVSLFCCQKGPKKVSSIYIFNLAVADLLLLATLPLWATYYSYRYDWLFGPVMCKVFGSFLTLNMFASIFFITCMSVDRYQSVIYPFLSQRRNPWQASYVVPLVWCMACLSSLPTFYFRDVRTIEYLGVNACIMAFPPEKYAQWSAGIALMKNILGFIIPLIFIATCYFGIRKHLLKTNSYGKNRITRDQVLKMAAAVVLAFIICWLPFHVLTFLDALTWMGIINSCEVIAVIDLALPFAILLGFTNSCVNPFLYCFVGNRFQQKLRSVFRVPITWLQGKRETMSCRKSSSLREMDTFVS

Cerebral cortex = test: Inhibition of GABA uptake in rat cerebral cortex; type: functional, tissue-based
[5] = test system: Classical swine fever virus; test: Antiviral activity against Classical swine fever virus assessed as protection of viral infection by cell based assay; type: functional

SMILES | IC50 [2] [nM] | IC50 (MCF7) [nM] | IC50 (MDA-MB-231) [nM] | further results
OC[C@H]1O[C@@H](n2cnc3c(NO)cc(Cl)nc32)[C@H](O)[C@@H]1O | – | – | – | IC50 [1]: 900 nM
Nc1nccc2c1ncn2C1C=C(CO)C(O)C1O (configuration not stated) [3-DEAZANEPLANOCIN A] | < 250 | < 250 | < 250 | IC50 (Human respirovirus 3): 0.02 µg/mL (≈ 0.0763 µM); IC50 (Yellow fever virus): 0.02 µg/mL (≈ 0.0763 µM); IC50 [3]: 0.02 µg/mL (≈ 0.0763 µM)
COc1ccc(CN2C=NC3CN(C(=O)C(c4ccccc4)c4ccccc4)C(C(=O)O)CC32)cc1C (configuration not stated) | – | – | – | IC50 [4]: 34 nM
O=C(O)C1Cc2[nH]cnc2CN1 (configuration not stated) | – | – | – | IC50 (Cerebral cortex): 270000 nM
Nc1nccc2c1ncn2[C@@H]1O[C@H](CO)[C@@H](O)[C@H]1O | < 100 | < 100 | < 100 | –
Nc1ncnc2c1ncn2[C@@H]1C=C(CO)[C@@H](O)[C@H]1O [NEOPLANOCIN A] | < 25000 | < 25000 | < 25000 | –
Brc1ccc(Cn2ccc3nc(-c4ccccc4)nc-3c2)cc1 | – | – | – | EC50 [5]: 800 nM
OC[C@H]1O[C@@H](n2cnc3/c(=N\O)[nH]cnc32)[C@H](O)[C@@H]1O | – | – | – | IC50 [1]: 900 nM

From ChEMBL document CHEMBL3612061, “Imidazopyridines as a source of biological activity and their pharmacological potentials-Infrared and Raman spectroscopic evidence of their content in pharmaceuticals and plant materials” (Bioorg Med Chem, 2015)
